Consider five compounds from patent publication US10273228B2, “Hepatitis B viral assembly effectors” (Indiana University Research and Technology Corporation, priority 2015, dated 2019).

One data set deals with AD38 cells. The data set can be described thus: AD38 viability normalized to DMSO control. Type of data set: cell-based. The settings on record: 10 μM compound, vs DMSO control; Table 9. As to the method: AD38 cells were then re-suspended with 10 mL of treatment medium and counted. Wells of a collagen coated 96-well NUNC microtiter plate were seeded at 50,000/well in 180 μL of treatment medium, and 20 μL of either 10% DMSO (Control) or a 10× solution of test compound in 10% DMSO in treatment media was added for a final compound concentration 1, 3, or 10 μM (1.0% final [DMSO]) and plates were incubated for 6 days at 37° C.

Data set [1] relates to HBV viral load, AD38 cells. The data set is described as follows: Activity of test compounds on viral production from AD38 cells (viral load by quantitative PCR of the core sequence in supernatant). It is filed as cell-based, Hepatitis B virus. Conditions: Hepatitis B virus, 144 h, 10 μM compound, 6 days at 37° C., vs DMSO control wells; Table 9; read-out: AD38 Viral Load (CpAM/DMSO %) at 10 μM. In outline: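 Cells seeded at 50,000/well on collagen-coated plates and exposed for 6 days at 37 °C to compound at 1, 3 or 10 μM final (1.0% DMSO). Supernatant viral DNA measured by TaqMan qPCR of the core sequence against known standards, compared with DMSO control wells.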

`Cc1cc(Nc2ccc(F)cc2)nc(N2CCN(S(=O)(=O)c3cccc(CC(=O)O)c3)CC2)n1` [Compound 1411, 2-(3-((4-(4-((4-fluorophenyl)amino)-6-methylpyrimidin-2-yl)piperazin-1-yl)sulfonyl)phenyl) acetic acid]: the “AD38 Viability Normalized Result (CPAM/DMSO %) at 10 μM” value in the data set on AD38 cells amounted to 102%. Also, the activity at 10 µM in data set [1] was determined as 117%.
For the compound `COC(=O)Cc1cccc(S(=O)(=O)N2CCN(c3nc(C)cc(Nc4ccc(F)cc4)n3)CC2)c1` [Compound 1412, methyl 2-(3-((4-(4-((4-fluorophenyl)amino)-6-methylpyrimidin-2-yl)piperazin-1-yl)sulfonyl)phenyl) acetate], in the data set with AD38 cells, the “AD38 Viability Normalized Result (CPAM/DMSO %) at 10 μM” value was found to be 109%. In addition, the activity at 10 µM in data set [1] was 61%.
For `O=S(=O)(c1ccc(OC(F)(F)F)cc1)N1CCN(c2nc(Nc3ccccn3)cc(C(F)(F)F)n2)CC1` [Compound 1415], in the data set on AD38 cells, the “AD38 Viability Normalized Result (CPAM/DMSO %) at 10 μM” value amounted to 101%. Also, the activity at 10 µM in data set [1] amounted to 120%.
As for `O=S(=O)(c1ccc(OC(F)(F)F)cc1)N1CCN(c2nc(Nc3nccs3)cc(C(F)(F)F)n2)CC1` [Compound 1418, N-(2-(4-((4-(trifluoromethoxy)phenyl)sulfonyl)piperazin-1-yl)-6-(trifluoromethyl)pyrimidin-4-yl) thiazol-2-amine], in the data set on AD38 cells, the “AD38 Viability Normalized Result (CPAM/DMSO %) at 10 μM” value was found to be 100%. In data set [1], the activity at 10 µM was 120%.
For the compound `O=S(=O)(c1ccc(OC(F)(F)F)cc1)N1CCCN(c2nc(Nc3ccc(F)cc3)cc(C(F)(F)F)n2)CC1` [Compound 1419], the “AD38 Viability Normalized Result (CPAM/DMSO %) at 10 μM” value in the data set on AD38 cells is reported as 93%. Besides, the activity at 10 µM in data set [1] stood at 11%.
